Laboratory results published in patent US20090030088A1, “Therapeutic benefits of gossypol, 6-methoxy gossypol, and 6,6'-dimothxy gossypol” (Clemson University, priority 2007, published 2009).

How the values were obtained:
[1] = DPPH free radical scavenging assay; settings: for concentration to scavenge 50% free radicals (IC50 value): DPPH in DCM, 30 min
Experimental: DPPH Free Radical Scavenging Assay. Scavenging activities on DPPH free radicals by gossypol and methoxy gossypol derivatives were determined according to the method of (9) with slight modification. The reaction mixture was made by mixing 0.4 mL of sample solution in DCM and same volume of 0.25 mM DPPH in DCM, shaken vigorously, incubated for 30 min in the dark at room temperature, and measured spectrophotometrically at 517 nm. BHT, a common used antioxidant, was used as a standard for comparison. The lower absorbance of reaction mixture indicated higher free radical scavenging activity, and the reduction of DPPH free radicals was calculated as following: […]

[2] = tested on: SiHa (cervical cancer cell line); assay: Cancer cell proliferation assay (CellTiter 96), SiHa; type: cell-based; settings: 10 ppm
Experimental: (§1) Anticancer Activities. Three cancer cell lines, MCF-7 (human breast cancer cell line), Caco-2 (human colon cancer cell line) and SiHa (cervical cancer cell line) were purchased from American Type Culture Collection (ATCC) (Rockville, Md.). MCF-7 and SiHa were cultured in RPMI-1640 with L-glutamine (2 mM), sodium pyruvate (1 mM), penicillin (100 unit/mL), streptomycin (0.1 mg/mL), 0.1 mM non-essential amino acids, 2.0 g/L sodium bicarbonate and 10% newborn calf serum. For Caco-2 cells, 10% fetal bovine serum was added instead of 10% newborn calf serum. All cell lines were incubated at 37° C. with 5% CO2 and 90-100% relative humidity. Medium renewal was carried out 2-3 times per week, and cells were subcultured when they were about 80-90% confluence.
(§2) Prior to chemical treatment, 10^4 cells/well (100 μL) were seeded into a 96-well tissue culture plate, and allowed to attach for 24 hours, then treated with defined concentrations of the tested chemicals in DMSO. Negative controls were cells treated with DMSO only, and DMSO concentration was kept 2% in each well. After 24 hour incubation, cell proliferation was determined using the CellTiter 96® aqueous nonradioactivity cell proliferation assay according to the manufacture's recommendations (Promega, Madison, Wis.) and recorded on universal EL800 Bio-Tek microplate reader at 490 nm.

[3] = tested on: MCF-7 (human breast cancer cell line); assay: Cancer cell proliferation assay (CellTiter 96), MCF-7; type: cell-based; settings: 10 ppm
Experimental: as §1, §2

[4] = tested on: Caco-2 (human colon cancer cell line); assay: Cancer cell proliferation assay (CellTiter 96), Caco-2; type: cell-based; settings: 10 ppm
Experimental: as §1, §2

plasmid DNA = assay: DNA strand scission assay (H2O2/UV hydroxyl radicals); design: species or system E. coli; settings: no oxidative stress
Experimental: Analysis of DNA Strand Breakage. The DNA strand scission assay was performed as described by Keum et al., (11) with minor modifications. The plasmid DNA was prepared and purified from E. coli cultures by the method (12). The reaction mixture (15 μL) contained 10 mM Tris-HCl, 1 mM EDTA buffer (pH 8.0), plasmid DNA (1 μL), and H2O2 (0.04 M). Gossypol and methoxy gossypol derivatives dissolved in DMSO at the defined concentrations were added prior to H2O2 addition. Hydroxyl radicals were generated by irradiation of the reaction mixture at a distance of 30 cm with a 12 W UV lamp. After incubation at room temperature for 30 min, the reaction was stopped by adding a loading buffer (0.25% bromophenol blue tracking dye and 40% sucrose), and analyzed by 1% agarose gel electrophoresis. The gel was visualized by staining with ethidium bromide, and photographed on a transiluminator (Biorad).

Trypanosome brucei cells = assay: Anti-trypanosomal activity, relative cell viability by flow cytometry; type: cell-based
Experimental: Anti-trypanosomal activities. Trypanosome brucei cells were grown in HMI-9 medium supplemented with 10% heat-inactivated fetal bovine serum and cultured as described by (13). Prior to treatment, 200 μL of the cells were seeded into 96-well tissue culture plate and treated with 2 μL of gossypol or methoxy gossypol derivatives dissolved in DMSO. After 24 hour incubation at 37° C. with 5% CO2 and 90-100% relative humidity, the cells were counted on a Becton Dickinson FACScan flow Cytometer, and the relative cell viability was calculated by comparing the vital cell number with control wells treated only with DMSO. Statistical Analysis. Each experiment was done at least three times, mean values were average of the triplicates, and the data were subjected to the analysis of variance (ANOVA).

SMILES | concentration to scavenge 50% free radicals (IC50 value) [1] [ppm] | free radicals scavenged ([1]; compound at 20 ppm) [%] | cancer inhibitive activity compared with gossypol [2] | cancer inhibitive activity compared with gossypol [3] | cancer inhibitive activity compared with gossypol [4] | DNA damage by the presence of the chemical alone (plasmid DNA) | inhibition of trypanosome cell growth (Trypanosome brucei cells; 1 ppm, 24 hour incubation) [%] | free radicals scavenged ([1]; BHT at 1000 ppm) [%] | free radicals scavenged ([1]; BHT at 1500 ppm) [%] | inhibition at 1 ppm (Trypanosome brucei cells; 24 h, read-out: inhibition of trypanosome cell growth) [%]
COc1c(O)c(C=O)c2c(O)c(-c3c(C)cc4c(C(C)C)c(OC)c(O)c(C=O)c4c3O)c(C)cc2c1C(C)C [6,6′-dimethoxy gossypol] | 16.8 | 60 | higher cancer inhibitive activity than gossypol | higher cancer inhibitive activity than gossypol | higher cancer inhibitive activity than gossypol | – | – | – | – | –
COc1c(O)c(C=O)c2c(O)c(-c3c(C)cc4c(C(C)C)c(O)c(O)c(C=O)c4c3O)c(C)cc2c1C(C)C [6-methoxy gossypol] | 16.4 | 60 | higher cancer inhibitive activity than gossypol | higher cancer inhibitive activity than gossypol | higher cancer inhibitive activity than gossypol | did not cause the DNA damage | 40 | – | – | –
Cc1cc(C(C)(C)C)c(O)c(C(C)(C)C)c1 [BHT, butylated hydroxytoluene, reference compound] | – | – | – | – | – | – | – | ~60 | 75 | –
Cc1cc2c(C(C)C)c(O)c(O)c(C=O)c2c(O)c1-c1c(C)cc2c(C(C)C)c(O)c(O)c(C=O)c2c1O [gossypol] | – | – | – | – | – | did not cause the DNA damage | – | – | – | 40
